Laboratory results published in patent publication US7135548B2, “Modified α-MSH peptides and derivatives thereof” (Zengen, Inc., priority 2002, dated 2006).
“Also recorded” adds a separate entry of the source. Square brackets hold non-standard residues; d marks the D form. Ends that are not written are not given here. dNal = D-naphthylalanine (D-Nal)

Assays:
[1] = tested on: Candida albicans; assay: Inhibition of Candida albicans colony formation (viability estimated from colonies formed); assay type: cell-based; conditions: for % Inhib. (inhibitory effect on Candida Albicans): clinical isolates, 1×10^6/ml in HBSS, two hours at 37° C. with peptide, colonies counted after 48 hours, peptide concentration for the table not given (range tested 10^−15 to 10^−4 M); for antimicrobial activity toward Candida albicans (result in words): Table 1 / FIG. 1
Procedure: Clinical isolates of C. albicans were also obtained from the collection of the Department of Microbiology, Ospedale Maggiore di Milano. Cultures of C. albicans were maintained on Sabouraud's agar slants and periodically transferred to Sabouraud's agar plates and incubated for 48 hours at 28° C. To prepare stationary growth-phase yeast, a colony may be taken from the agar plate, transferred into 30 ml of Sabouraud-dextrose broth, and incubated for 72 hours at 32° C. Cells were centrifuged at 1000×g for ten minutes, and the pellet may be washed twice with distilled water. Cells were counted and suspended in Hank's balanced salt solution (“HBSS”) to the desired concentration. Viability, determined by exclusion of 0.01% methylene blue, remained greater than 98%.
At 1×10^6/ml in HBSS, these fungi were incubated in the presence or absence of modified α-MSH peptides at concentrations ranging from 10^−15 to 10^−4 M for two hours at 37° C. Cells were then washed in cold distilled water and diluted with HBSS to a concentration of 100 organisms/ml. One-milliliter aliquots were then dispensed on blood agar plates and incubated for 48 hours at 37° C. The organism's viability may be estimated from the number of colonies formed.

[2] = tested on: Candida albicans; conditions: comparison value, see U.S. patent application Ser. No. 09/535,066; cited from earlier work

| Substance | % Inhib. (inhibitory effect on Candida Albicans) [1] [%] | antimicrobial activity toward Candida albicans (result in words) [1] | inhibition of C. albicans colonies by naturally occurring α-MSH [2] |
| --- | --- | --- | --- |
| HFRWGAPV [SEQ. ID. NO. 18] | 26.2 |  |  |
| HFRWGKAV [SEQ. ID. NO. 19] | 12.8 |  |  |
| HFRWGKDV [SEQ. ID. NO. 38] | 5.9 |  |  |
| HFRWGKEV [SEQ. ID. NO. 42] | 11.2 |  |  |
| HFRWGKFV [SEQ. ID. NO. 32] | 90.0 |  |  |
| HFRWGKGV [SEQ. ID. NO. 28] | 41.8 |  |  |
| HFRWGKKV [SEQ. ID. NO. 44] | 41.0 |  |  |
| HFRWGKPA [SEQ. ID. NO. 20] | 68.4 |  |  |
| HFRWGKPL [SEQ. ID. NO. 24] | 86.6 |  |  |
| HFRWGKSV [SEQ. ID. NO. 30] | 32.3 | No substantial modification in activity |  |
| HFR[dW]GKPV [SEQ. ID. NO. 23] | 81.9 |  |  |
| H[dF]RWGK[dF]V [SEQ. ID. NO. 35] | 82.0 |  |  |
| His-DNal-Arg-Trp-Gly-Lys-Ala-Val (H[dNal]RWGKAV-OH) [SEQ. ID. NO. 26] | 28.0 |  |  |
| His-DNal-Arg-Trp-Gly-Lys-Asp-Val (H[dNal]RWGKDV-OH) [SEQ. ID. NO. 41] | 16.8 | decreased activity |  |
| His-DNal-Arg-Trp-Gly-Lys-DAla-Val (H[dNal]RWGK[dA]V-OH) [SEQ. ID. NO. 27] | 69.2 |  |  |
| His-DNal-Arg-Trp-Gly-Lys-DPhe-Val (H[dNal]RWGK[dF]V-OH) [SEQ. ID. NO. 37] | 57.6 | potent antimicrobial activity |  |
| His-DNal-Arg-Trp-Gly-Lys-Glu-Val (H[dNal]RWGKEV-OH) [SEQ. ID. NO. 43] | 32.3 | decreased activity |  |
| His-DNal-Arg-Trp-Gly-Lys-Gly-Val (H[dNal]RWGKGV-OH) [SEQ. ID. NO. 29] | 36.2 |  |  |
| His-DNal-Arg-Trp-Gly-Lys-Lys-Val (H[dNal]RWGKKV-OH) [SEQ. ID. NO. 45] | 85.4 |  |  |
| His-DNal-Arg-Trp-Gly-Lys-Phe-Val (H[dNal]RWGKFV-OH) [SEQ. ID. NO. 36] | 99.7 | potent antimicrobial activity; also recorded: remarkable anticandidacidal activity |  |
| His-DNal-Arg-Trp-Gly-Lys-Pro-Val (H[dNal]RWGKPV-OH) [SEQ. ID. NO. 22] | 95.3 | increased activity |  |
| His-DNal-Arg-Trp-Gly-Lys-Ser-Val (H[dNal]RWGKSV-OH) [SEQ. ID. NO. 31] | 73.9 | No substantial modification in activity |  |
| His-DPhe-Arg-Trp-Gly-Lys-Asp-Val (H[dF]RWGKDV-OH; N-terminus assumed; SMILES CC(C)[C@H](NC(=O)[C@H](CC(=O)O)NC(=O)[C@H](CCCCN)NC(=O)CNC(=O)[C@H](Cc1c[nH]c2ccccc12)NC(=O)[C@H](CCCNC(=N)N)NC(=O)[C@@H](Cc1ccccc1)NC(=O)[C@@H](N)Cc1c[nH]cn1)C(=O)O) [SEQ. ID. NO. 40] | 3.7 |  |  |
| His-DPhe-Arg-Trp-Gly-Lys-Phe-Val (H[dF]RWGKFV-OH; N-terminus assumed; SMILES CC(C)[C@H](NC(=O)[C@H](Cc1ccccc1)NC(=O)[C@H](CCCCN)NC(=O)CNC(=O)[C@H](Cc1c[nH]c2ccccc12)NC(=O)[C@H](CCCNC(=N)N)NC(=O)[C@@H](Cc1ccccc1)NC(=O)[C@@H](N)Cc1c[nH]cn1)C(=O)O) [SEQ. ID. NO. 34] | 89.6 |  |  |
| His-DPhe-Arg-Trp-Gly-Lys-Pro-Val (H[dF]RWGKPV-OH; N-terminus assumed; SMILES CC(C)[C@H](NC(=O)[C@@H]1CCCN1C(=O)[C@H](CCCCN)NC(=O)CNC(=O)[C@H](Cc1c[nH]c2ccccc12)NC(=O)[C@H](CCCNC(=N)N)NC(=O)[C@@H](Cc1ccccc1)NC(=O)[C@@H](N)Cc1c[nH]cn1)C(=O)O) [SEQ. ID. NO. 21] | 79.4 |  |  |
| His-Phe-Arg-Trp-Gly-Lys-DAla-Val (HFRWGK[dA]V-OH; N-terminus assumed; SMILES CC(C)[C@H](NC(=O)[C@@H](C)NC(=O)[C@H](CCCCN)NC(=O)CNC(=O)[C@H](Cc1c[nH]c2ccccc12)NC(=O)[C@H](CCCNC(=N)N)NC(=O)[C@H](Cc1ccccc1)NC(=O)[C@@H](N)Cc1c[nH]cn1)C(=O)O) [SEQ. ID. NO. 25] | 43.7 |  |  |
| His-Phe-Arg-Trp-Gly-Lys-DAsp-Val (HFRWGK[dD]V-OH; N-terminus assumed; SMILES CC(C)[C@H](NC(=O)[C@@H](CC(=O)O)NC(=O)[C@H](CCCCN)NC(=O)CNC(=O)[C@H](Cc1c[nH]c2ccccc12)NC(=O)[C@H](CCCNC(=N)N)NC(=O)[C@H](Cc1ccccc1)NC(=O)[C@@H](N)Cc1c[nH]cn1)C(=O)O) [SEQ. ID. NO. 39] | 15.7 |  |  |
| His-Phe-Arg-Trp-Gly-Lys-DPhe-Val (HFRWGK[dF]V-OH; N-terminus assumed; SMILES CC(C)[C@H](NC(=O)[C@@H](Cc1ccccc1)NC(=O)[C@H](CCCCN)NC(=O)CNC(=O)[C@H](Cc1c[nH]c2ccccc12)NC(=O)[C@H](CCCNC(=N)N)NC(=O)[C@H](Cc1ccccc1)NC(=O)[C@@H](N)Cc1c[nH]cn1)C(=O)O) [SEQ. ID. NO. 33] | 97.5 |  |  |
| His-Phe-Arg-Trp-Gly-Lys-Pro-DVal (HFRWGKP[dV]-OH; N-terminus assumed; SMILES CC(C)[C@@H](NC(=O)[C@@H]1CCCN1C(=O)[C@H](CCCCN)NC(=O)CNC(=O)[C@H](Cc1c[nH]c2ccccc12)NC(=O)[C@H](CCCNC(=N)N)NC(=O)[C@H](Cc1ccccc1)NC(=O)[C@@H](N)Cc1c[nH]cn1)C(=O)O) [SEQ. ID. NO. 17] | 82.5 |  |  |
| SYSMEHFRWGKPV [α-MSH, naturally occurring 13-amino acid peptide, α-melanocyte-stimulating hormone] |  |  | less than 80% |
